# Where two headings read alike, the source gives them in different places.
# Legend:
# [1] = Assay of plasma and perilymph for lamotrigine (pharmacokinetic evaluation); format: in vivo; settings: guinea pig, single oral dose 20 mg/kg; for concentration at 15 h / Tmax / Cmax: male, albino
# Procedure: All solutions were prepared fresh on the day of dosing and stored at 2-8° C., protected from light, between dosing sessions. In order to establish the otoprotective properties of LTG, a pharmacokinetic evaluation study was designed to establish penetration of LTG into guinea pig perilymph and plasma. A total of 17 healthy adult male albino guinea pigs were used. […] Two untreated control animals were also sampled for comparison. […] After the terminal blood sample had been taken, the animal received an overdose of anaesthetic and was decapitated. The bulla was removed and thoroughly cleaned to remove all tissue and fluids. […] Levels of LTG in both plasma and perilymph were determined using a protein precipitation extraction procedure using high performance liquid chromatography (HPLC) with ultraviolet (UV) detection. The LTG retention time was 5.4 minutes and quantification was carried out using peak areas.
# [2] = system: supramaximal electroshock (MES) model; settings: rat; cited from earlier work
# [3] = system: cochlea nerve compound action potential (CAP); experiment: Otoprotection after acute noise insult: CAP threshold shifts; format: in vivo, guinea pig; settings: 20 mg/kg about 2 hours before 15 minutes filtered (5-20 KHz) noise; 8, 16, 24 and 30 KHz
# Procedure: Sedation was achieved using an intramuscular injection of 0.5 mL/kg medetomidine followed by an intraperitoneal injection of 6 mL/kg fentanyl approximately 10 minutes later (loss of the pedal reflex was used to determine sufficient sedation for surgery).
# The cochlea nerve compound action potential (CAP) was generated in response to discrete acoustic stimuli. It was used to determine both control and treatment related changes in auditory thresholds by measuring changes in CAP latency (milliseconds) and amplitude (μVolts).
# Tone ‘pip’ stimuli of 5 millisecond duration were computer generated at 8, 16, 24 and 30 KHz and fed to an attenuator (1 dB resolution). The tone pip was then fed to a Bruel and Kjaer 4192, (microphone) serving as an acoustic driver, which was placed inside an ear speculum coupled to the ear canal. CAP averaging was performed between ×50 to 100 times and the CAP threshold was determined by visual inspection of the recorded time signal. Accuracy was typically between 1-3 dB, using a CAP detection criterion of approximately 1 μV.
# Animals were then exposed to 15 minutes filtered (5-20 KHz) free field noise (approximately […]) during which ESAC measurements were made at 5 minute intervals.
structure (smiles),measurement,setting,value
"Nc1nnc(-c2cccc(Cl)c2Cl)c(N)n1 [LTG, 3,5-Diamino-6-(2,3-dichlorophenyl)-1,2,4-triazine]",levels in perilymph relative to plasma,[1]; timepoints 1-15 hours,approximately twice
same,concentration at 15 h,"[1]; perilymph, read-out: mean perilymph LTG level after the 15 hour sampling period",3200 ng/mL
same,Tmax,"[1]; perilymph, read-out: perilymph approximate mean time of maximum concentration (Tmax)",~2 h
same,Cmax,"[1]; perilymph, read-out: perilymph mean maximum concentration (Cmax)",6140 ng/mL
same,concentration at 15 h,"[1]; plasma, read-out: mean plasma LTG level after the 15 hour sampling period",1000 ng/mL
same,Cmax,"[1]; plasma, read-out: mean plasma Cmax",3590 ng/mL
same,Tmax,"[1]; plasma, read-out: plasma Tmax",1 h
same,effective oral dose (ED50),[2],6.8 mg/kg
same,CAP threshold shifts after noise versus noise control,[3],mean thresholds were higher in the LTG treated animals and reached statistical significance at 8 kHz
